“And” between values parts separate entries of the source, which are not always exact repeats. Equal values may be shown once.
Columns and labels:
[1] = tested on: ABCA1 mRNA in THP-1 cells; assay: ABCA1 bDNA assay (ABCA1 mRNA induction); format: cell-based, human; details: for EC50 / Emax: Homo sapiens; for EC50: THP-1, THP-1 cells, ABCA1 mRNA induction; for ABCA1 (% max MX-6054) @3 μM / Emax / ABCA1 (% max MX-6054) @0.3 μM: THP-1 cells, relative to max of MX-6054; for Emax: concentration not given
Description: THP-1 cells, a human monocytic cell line, were obtained from ATCC and maintained in RPMI (Gibco) supplemented with 10% fetal bovine serum (Gibco), 2 mM L-glutamine and 1% antibiotic-antimycotic in 5% CO2 at 37° C. For ABCA1 mRNA induction assays, the cells were pelleted and resuspended in RPMI supplemented with 0.5% charcoal treated serum (Hyclone), 2 mM glutamine and 1% antibiotic-antimycotic. The cells were plated at a density of 40,000 cells/90 µl and incubated as above for at least 4 hours before the initiation of treatments. Compounds were prepared as 10 mM stocks in DMSO. For treatments, the compounds were diluted in medium and 10 µl of 10× stocks were added to the cells at a final concentration 0.1% DMSO. The cells were incubated for the desired amount of time (usually 18-24 hrs) and then lyzed with 50 µl of Quantigene HV bDNA lysis buffer which also contained the ABCA1 bDNA probes (probe sequences shown below): […]

[2] = target: T1, RXR (Homo sapiens, UniProt P19793); assay: RXR co-transfection assay (GAL4 fusion, luciferase reporter, HEK293 cells); format: cell-based; details: for RXR co-transfection (% of 2,4-thiazolidinedione, 5-[[3-(1-ethyl-1,2,3,4-tetrahydro-4,4,6-trimethyl-2-oxo-7-quinolinyl)-4-(trifluoro-methoxy)phenyl]methylene]-, (5Z)-): relative to the reference thiazolidinedione
T1 construct: expressed in transfected cells; host or cells: HEK293
T1 sequence (P19793 227-458 limits assumed): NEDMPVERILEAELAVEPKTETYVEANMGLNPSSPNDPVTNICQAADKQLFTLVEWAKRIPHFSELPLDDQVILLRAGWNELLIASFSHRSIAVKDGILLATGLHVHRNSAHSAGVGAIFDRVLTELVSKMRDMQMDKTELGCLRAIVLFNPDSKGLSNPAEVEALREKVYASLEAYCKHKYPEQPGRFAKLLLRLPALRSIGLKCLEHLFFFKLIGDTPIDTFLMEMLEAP
Description: The nucleic acid sequence from 676-1464 bp (accession number X52773) encoding the ligand binding domains was subcloned into the pM vector (BD Biosciences Clontech, Palo Alto, Calif.) and were fused with the DNA binding domain of yeast GAL4. HEK293 cells were cultured in DMEM/F12 medium supplemented with 10% FBS and 1% I-glutamine (growth medium). Cells were seeded at a density of 5-10×10^6 cells in 50 ml of growth medium and left overnight. The medium was removed and the cells were washed with 15 ml of OptiMEM serum free medium (Invitrogen Corp). The cells were transfected using OptiMEM serum free medium and DMRIE transfection reagent (Invitrogen Corp). Approximately 10-30 ng of DNA for the different receptors and 5-10 ng of the luciferase reporter (1:1 ratio for RAR and 4:1 ratio for RXR of receptor DNA:reporter DNA) were gently mixed with 51 µl of DMRIE reagent in a total volume of 17 ml of OptiMEM medium. Eighteen hours after transfection, the cells were washed once with growth medium and then incubated for 6 hrs in 30 ml of growth medium. The cells were then trypsinized, and reseeded at a density of 50,000 per well in 96 well plates and left overnight. The medium was replaced with 90 µl of medium containing DMEM/F12 supplemented with 0.5% charcoal-treated FBS (HyClone; Logan, Utah) and 1% glutamine. Compounds or vehicle were added in 10 µl of 10× concentration of compound or vehicle (0.1% dimethyl sulfoxide). The cells were treated for 16-18 hours, lysed and assayed for luciferase activity using the Steady Glo luciferase assay kit (Promega, Madison, Wis.).

Cc1cc2c(cc1-c1cc(/C=C/C(=O)O)ccc1OC(F)(F)F)N(C)C(=O)CC2(C)C [Compound 3, 3-[3-(1,4,4,6-Tetramethyl-2-oxo-1,2,3,4-tetrahydro-quinolin-7-yl)-4-trifluoromethoxy-phenyl]-acrylic acid]
EC50 [1]: 200 nM | ABCA1 (% max MX-6054) @3 μM [1]: (56% @3 μM) | EC50 [2]: 12.8 nM and 35.8 nM

COc1ccc(/C=C/C(=O)O)cc1-c1cc2c(cc1C)C(C)(C)CC(=O)N2C(C)C [Compound 12, 3-[3-(1-isopropyl-4,4,6-trimethyl-2-oxo-1,2,3,4-tetrahydro-quinolin-7-yl)-4-methoxy-phenyl]-acrylic acid]
EC50 [1]: 510 nM | Emax [1]: 59% | EC50 [2]: 71.2 nM and 62.7 nM and 36.7 nM | RXR co-transfection (% of 2,4-thiazolidinedione, 5-[[3-(1-ethyl-1,2,3,4-tetrahydro-4,4,6-trimethyl-2-oxo-7-quinolinyl)-4-(trifluoro-methoxy)phenyl]methylene]-, (5Z)-) [2]: (85%)

Cc1cc2c(cc1-c1cc(/C=C/C(=O)O)ccc1OCC(F)(F)F)N(C(C)C)C(=O)CC2(C)C [Compound 11, 3-[3-(1-Isopropyl-4,4,6-trimethyl-2-oxo-1,2,3,4-tetrahydro-quinolin-7-yl)-4-(2,2,2-trifluoro-ethoxy)-phenyl]-acrylic acid]
EC50 [1]: 44 nM | EC50 [2]: 23.1 nM | RXR co-transfection (% of 2,4-thiazolidinedione, 5-[[3-(1-ethyl-1,2,3,4-tetrahydro-4,4,6-trimethyl-2-oxo-7-quinolinyl)-4-(trifluoro-methoxy)phenyl]methylene]-, (5Z)-) [2]: (64%)

Cc1cc2c(cc1-c1cc(CCC(=O)O)ccc1OC(F)(F)F)N(C(C)C)C(=O)CC2(C)C [Compound 28, 3-[3-(1-Isopropyl-4,4,6-trimethyl-2-oxo-1,2,3,4-tetrahydro-quinolin-7-yl)-4-trifluoromethoxy-phenyl]-propionic acid]
EC50 [1]: 1 nM | Emax [1]: 59% | EC50 [2]: 3.4 nM | RXR co-transfection (% of 2,4-thiazolidinedione, 5-[[3-(1-ethyl-1,2,3,4-tetrahydro-4,4,6-trimethyl-2-oxo-7-quinolinyl)-4-(trifluoro-methoxy)phenyl]methylene]-, (5Z)-) [2]: (80%)

CCN1C(=O)CC(C)(C)c2cc(C)c(-c3cc(/C=C\C(=O)O)ccc3OC(F)(F)F)cc21 [Compound 58, 3-[3-(1-Ethyl-4,4,6-trimethyl-2-oxo-1,2,3,4-tetrahydro-quinolin-7-yl)-4-trifluoromethoxy-phenyl]-acrylic acid]
EC50 [1]: 886 nM | Emax [1]: 75% | EC50 [2]: ~50.9 nM and 27.2 nM

Cc1cc2c(cc1-c1cc([C@@H]3C[C@H]3C(=O)O)ccc1OC(F)(F)F)N(C(C)C)C(=O)CC2(C)C (racemic) [Compound 43, (□)-2-[3-(1-Isopropyl-4,4,6-trimethyl-2-oxo-1,2,3,4-tetrahydro-quinolin-7-yl)-4-trifluoromethoxy-phenyl]-cyclopropanecarboxylic acid]
EC50 [1]: > 1000 nM | ABCA1 (% max MX-6054) @3 μM [1]: (56% @3 μM) | EC50 [2]: 2.9 nM and 7.1 nM

Cc1cc2c(cc1-c1cc([C@@H]3C[C@H]3C(=O)O)ccc1OC(F)(F)F)N(C)C(=O)CC2(C)C (racemic) [Compound 42, (□)-2-[3-(1,4,4,6-Tetramethyl-2-oxo-1,2,3,4-tetrahydro-quinolin-7-yl)-4-trifluoromethoxy-phenyl]-cyclopropanecarboxylic acid]
EC50 [1]: > 1400 nM | ABCA1 (% max MX-6054) @3 μM [1]: (38% @3 μM) | EC50 [2]: 144 nM | RXR co-transfection (% of 2,4-thiazolidinedione, 5-[[3-(1-ethyl-1,2,3,4-tetrahydro-4,4,6-trimethyl-2-oxo-7-quinolinyl)-4-(trifluoro-methoxy)phenyl]methylene]-, (5Z)-) [2]: (108%)

CCN1C(=O)CC(C)(C)c2cc(C)c(-c3cc(/C=C(\C)C(=O)O)ccc3OC(F)(F)F)cc21 [Compound 9, 3-[3-(1-Ethyl-4,4,6-trimethyl-2-oxo-1,2,3,4-tetrahydro-quinolin-7-yl)-4-trifluoromethoxy-phenyl]-2-methyl-acrylic acid]
EC50 [1]: 100 nM | ABCA1 (% max MX-6054) @0.3 μM [1]: (39.9% @0.3 μM) | EC50 [2]: 31.7 nM and 24.2 nM

CCN1C(=O)CC(C)(C)c2cc(C)c(-c3cc(/C=C/C(=O)O)ccc3OC(F)(F)F)cc21 [Compound 2, 3-[3-(1-Ethyl-4,4,6-trimethyl-2-oxo-1,2,3,4-tetrahydro-quinolin-7-yl)-4-trifluoromethoxy-phenyl]-acrylic acid]
EC50 [1]: ~3.6 nM | Emax [1]: 81% | EC50 [2]: 1 nM and 2.5 nM

CCN1C(=O)CC(C)(C)c2cc(C)c(-c3cc(CCC(=O)O)ccc3OC(F)(F)F)cc21 [Compound 26, 3-[3-(1-Ethyl-4,4,6-trimethyl-2-oxo-1,2,3,4-tetrahydro-quinolin-7-yl)-4-trifluoromethoxy-phenyl]-propionic acid]
EC50 [1]: 47 nM | Emax [1]: 56.8% | EC50 [2]: 7.1 nM and 7.3 nM

CCN1C(=O)CC(C)(C)c2cc(C)c(-c3cc(C(C)CC(=O)O)ccc3OC(F)(F)F)cc21 (stereo not shown) [Compound 30, 3-[3-(1-Ethyl-4,4,6-trimethyl-2-oxo-1,2,3,4-tetrahydro-quinolin-7-yl)-4-trifluoromethoxy-phenyl]-butyric acid]
EC50 [1]: 347 nM | Emax [1]: 160% | EC50 [2]: 46.3 nM and 29.1 nM

CCN1C(=O)CC(C)(C)c2cc(C)c(-c3cc(/C=C/C(=O)O)ccc3OCC(F)(F)F)cc21 [Compound 1, 3-[3-(1-Ethyl-4,4,6-trimethyl-2-oxo-1,2,3,4-tetrahydro-quinolin-7-yl)-4-(2,2,2-trifluoro-ethoxy)-phenyl]-acrylic acid]
Emax [1]: 60% | EC50 [2]: 57.2 nM and 72.3 nM and 72.4 nM | melting point: 237 to 241 °C

Cc1cc2c(cc1-c1cc(/C=C/C(=O)O)ccc1OC(F)(F)F)N(C(C)C)C(=O)CC2(C)C [Compound 4, 3-[3-(1-Isopropyl-4,4,6-trimethyl-2-oxo-1,2,3,4-tetrahydro-quinolin-7-yl)-4-trifluoromethoxy-phenyl]-acrylic acid]
EC50 [1]: 10 nM | ABCA1 (% max MX-6054) @0.3 μM [1]: (70.3% @0.3 μM) | EC50 [2]: 16.3 nM | RXR co-transfection (% of 2,4-thiazolidinedione, 5-[[3-(1-ethyl-1,2,3,4-tetrahydro-4,4,6-trimethyl-2-oxo-7-quinolinyl)-4-(trifluoro-methoxy)phenyl]methylene]-, (5Z)-) [2]: (97%)

Cc1cc2c(cc1-c1cc(CCC(=O)O)ccc1OCC(F)(F)F)N(C(C)C)C(=O)CC2(C)C [Compound 31, 3-[3-(1-Isopropyl-4,4,6-trimethyl-2-oxo-1,2,3,4-tetrahydro-quinolin-7-yl)-4-(2,2,2-trifluoro-ethoxy)-phenyl]-propionic acid]
EC50 [1]: 369 nM | Emax [1]: 45% | EC50 [2]: 59.6 nM and 12.6 nM and 37.2 nM

COc1ccc([C@@H]2C[C@H]2C(=O)O)cc1-c1cc2c(cc1C)C(C)(C)CC(=O)N2C(C)C (racemic) [Compound 44, (□)-2-[3-(1-Isopropyl-4,4,6-trimethyl-2-oxo-1,2,3,4-tetrahydro-quinolin-7-yl)-4-methoxy-phenyl]-cyclopropanecarboxylic acid]
EC50 [1]: 1520 nM | Emax [1]: 29% | EC50 [2]: 251 nM and 164 nM

Reference: patent US8236819B2, “Dihydro-[1H]-quinolin-2-one derivatives as RXR agonists for the treatment of dyslipidemia, hypercholesterolemia and diabetes” (Janssen Pharmaceutica N.V., priority 2005, dated 2012)
